Here are results for three compounds from patent publication US20230065437A1, “ACIDIZING OF SUBTERRANEAN FORMATIONS WITH PLACEMENT OF SCALE INHIBITOR” (priority 2021, published 2023).

In brackets after ≈: the same amount, converted by molar mass.

The conditions of series [1]: cited from earlier work.
The nature of series [2]: Solubility of PMIDA in water and HCl at various temperatures and pressures. Format: physicochemical. The conditions noted are these: for solubility thermodynamic: aqueous buffer, thermodynamic from solid. From the text:
In certain embodiments, the organophosphorous compound comprising a phosphonoalkyl moiety is at least partially solubilized in the acid component. As used herein, the term “at least partially solubilized,” and grammatical variants thereof, with reference to the organophosphorous compound comprising a phosphonoalkyl moiety in the acid component refers to dissolution of at least about 2% weight per volume (w/v) of the organophosphorous compound comprising a phosphonoalkyl moiety in the acid component at room temperature. As used herein, the term “room temperature” refers to about 15° C. to about 25° C. The remaining excess organophosphorous compound comprising a phosphonoalkyl moiety may be suspended in the acid component while it is undergoing dynamic fluid flow at room temperature. As temperatures increase (e.g., as the treatment fluid is introduced into a subterranean formation and encounters downhole temperatures), the solubility of the organophosphorous compound comprising a phosphonoalkyl moiety in the acid component may increase. Indeed, the solubility of the organophosphorous compound comprising a phosphonoalkyl moiety increases as a function of acid concentration, and temperature.

As for `O=C(O)CN(CCO)CC(=O)O` [HEIDA, N-(2-hydroxyethyl)iminodiacetic acid], the pKa values entry in series [1] is “about 2.2”.
In the case of `O=C([O-])CC(NC(C(=O)[O-])C(O)C(=O)[O-])C(=O)[O-].[Na+].[Na+].[Na+].[Na+]` (centres unmarked) [HIDS, tetrasodium 3-hydroxy-2,2′-iminodisuccinate], in series [1], the pKa values result is listed as “about 2.83”.
By solubility (thermodynamic) is commonly meant solubility found after equilibrating the solid with the medium. For `O=C(O)CN(CC(=O)O)CP(=O)(O)O` [PMIDA, N-(phosphonomethyl)iminodiacetic acid], the solubility (thermodynamic) in series [2] (7.5% HCl, 37.8 °C, Atm., 100° F.) came to 17.4 mg/mL (≈ 76.6 mM); in series [2] (7.5% HCl, 65.6 °C, Atm., 150° F.) it was 39.7 mg/mL (≈ 175 mM); in series [2] (10% HCl, 37.8 °C, Atm., 100° F.), 20 mg/mL (≈ 88.1 mM); in series [2] (10% HCl, 65.6 °C, Atm., 150° F.), 49.1 mg/mL (≈ 216 mM); in series [2] (10% HCl, 93.3 °C, Atm., 200° F.) it was 101 mg/mL (≈ 445 mM); in series [2] (15% HCl, 37.8 °C, 200 psi, 100° F.), 41.1 mg/mL (≈ 181 mM). For the same compound, the solubility (thermodynamic) in series [2] (15% HCl, 37.8 °C, Atm., 100° F.) came to 30.6 mg/mL (≈ 135 mM); in series [2] (15% HCl, 65.6 °C, 200 psi, 150° F.), 95.7 mg/mL (≈ 421 mM); in series [2] (15% HCl, 65.6 °C, Atm., 150° F.), 72.2 mg/mL (≈ 318 mM); in series [2] (15% HCl, 93.3 °C, 200 psi, 200° F.) it was 203 mg/mL (≈ 896 mM); in series [2] (15% HCl, 93.3 °C, Atm., 200° F.) it was 166 mg/mL (≈ 731 mM). Further, the “Solubility Average” value in series [2] (Atm., 7.5% HCl, 200° F.) is 10.00 w/v %.
